Reference: patent US20040087633A1, “Methylidene oxazolidinone compound and preparation method thereof” (Korea Institute of Science and Technology, priority 2002, published 2004)
Converted amounts (≈) assume the structure as drawn.

What was measured:
Experiment in all cases: Anti-microbial activity test in vitro (agar dilution MIC)
[1] = tested on: CRSA C6043; type: cell-based, Staphylococcus aureus; conditions: CRSA C6043; Agar Dilution method, Mueller Hinton Agar, 18 hours at 37° C.
Method in brief: (§1)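 Growth inhibition is assessed by agar dilution using Mueller Hinton agar; compound concentrations fall in twofold steps, and after 18 h at 37 °C the MIC (μg/ml) is determined by inspection.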

[2] = tested on: MRSA C5100; type: cell-based, Staphylococcus aureus; conditions: MRSA C5100; Agar Dilution method, Mueller Hinton Agar, 18 hours at 37° C.
Method in brief: as §1

[3] = tested on: MSSA C2214; type: cell-based, Staphylococcus aureus; conditions: MSSA C2214; Agar Dilution method, Mueller Hinton Agar, 18 hours at 37° C.
Method in brief: as §1

[4] = tested on: MSSA C7142; type: cell-based, Staphylococcus aureus; conditions: MSSA C7142; Agar Dilution method, Mueller Hinton Agar, 18 hours at 37° C.
Method in brief: as §1

[5] = tested on: MRSA C2207; type: cell-based, Staphylococcus aureus; conditions: MRSA C2207; Agar Dilution method, Mueller Hinton Agar, 18 hours at 37° C.
Method in brief: as §1

[6] = tested on: MRSA C6068; type: cell-based, Staphylococcus aureus; conditions: MRSA C6068; Agar Dilution method, Mueller Hinton Agar, 18 hours at 37° C.
Method in brief: as §1

[7] = tested on: CRSA C1062; type: cell-based, Staphylococcus aureus; conditions: CRSA C1062; Agar Dilution method, Mueller Hinton Agar, 18 hours at 37° C.
Method in brief: as §1

[8] = tested on: S. pyogenes C6012; type: cell-based; conditions: S. pyogenes C6012; Agar Dilution method, Mueller Hinton Agar, 18 hours at 37° C.
Method in brief: as §1

[9] = tested on: S. aureus ATCC 29213; type: cell-based; conditions: Agar Dilution method, Mueller Hinton Agar, 18 hours at 37° C.
Method in brief: as §1

[10] = tested on: S. pyogenes C6003; type: cell-based; conditions: S. pyogenes C6003; Agar Dilution method, Mueller Hinton Agar, 18 hours at 37° C.
Method in brief: as §1

[11] = tested on: E. faecalis ATCC29212; type: cell-based; conditions: E. faecalis ATCC29212; Agar Dilution method, Mueller Hinton Agar, 18 hours at 37° C.
Method in brief: as §1

[12] = tested on: E. faecalis C6291; type: cell-based; conditions: E. faecalis C6291; Agar Dilution method, Mueller Hinton Agar, 18 hours at 37° C.
Method in brief: as §1

[13] = tested on: E. faecium C2252; type: cell-based; conditions: E. faecium C2252; Agar Dilution method, Mueller Hinton Agar, 18 hours at 37° C.
Method in brief: as §1

[14] = tested on: E. faecium C6301; type: cell-based; conditions: E. faecium C6301; Agar Dilution method, Mueller Hinton Agar, 18 hours at 37° C.
Method in brief: as §1

[15] = tested on: S. epidermidis ATCC12228; type: cell-based; conditions: S. epidermidis ATCC12228; Agar Dilution method, Mueller Hinton Agar, 18 hours at 37° C.
Method in brief: as §1

[16] = tested on: S. pyogenes ATCC8668; type: cell-based; conditions: S. pyogenes ATCC8668; Agar Dilution method, Mueller Hinton Agar, 18 hours at 37° C.
Method in brief: as §1

[17] = tested on: E. faecalis C6288; type: cell-based; conditions: E. faecalis C6288; Agar Dilution method, Mueller Hinton Agar, 18 hours at 37° C.
Method in brief: as §1

[18] = tested on: S. epidermidis C2230; type: cell-based; conditions: S. epidermidis C2230; Agar Dilution method, Mueller Hinton Agar, 18 hours at 37° C.
Method in brief: as §1

[19] = tested on: S. epidermidis C2235; type: cell-based; conditions: S. epidermidis C2235; Agar Dilution method, Mueller Hinton Agar, 18 hours at 37° C.
Method in brief: as §1

[20] = tested on: VRE C6487; type: cell-based, Enterococcus faecium; conditions: VRE C6487; Agar Dilution method, Mueller Hinton Agar, 18 hours at 37° C.
Method in brief: as §1

[21] = tested on: VRE C6488; type: cell-based, Enterococcus faecium; conditions: VRE C6488; Agar Dilution method, Mueller Hinton Agar, 18 hours at 37° C.
Method in brief: as §1

| SMILES | Minimum inhibition concentration (MIC) [1] [µg/mL] | Minimum inhibition concentration (MIC) [2] [µg/mL] | Minimum inhibition concentration (MIC) [3] [µg/mL] | Minimum inhibition concentration (MIC) [4] [µg/mL] | Minimum inhibition concentration (MIC) [5] [µg/mL] | Minimum inhibition concentration (MIC) [6] [µg/mL] | Minimum inhibition concentration (MIC) [7] [µg/mL] | Minimum inhibition concentration (MIC) [8] [µg/mL] | Minimum inhibition concentration (MIC) [9] [µg/mL] | Minimum inhibition concentration (MIC) [10] [µg/mL] | Minimum inhibition concentration (MIC) [11] [µg/mL] | Minimum inhibition concentration (MIC) [12] [µg/mL] | Minimum inhibition concentration (MIC) [13] [µg/mL] | Minimum inhibition concentration (MIC) [14] [µg/mL] | Minimum inhibition concentration (MIC) [15] [µg/mL] | Minimum inhibition concentration (MIC) [16] [µg/mL] | Minimum inhibition concentration (MIC) [17] [µg/mL] | Minimum inhibition concentration (MIC) [18] [µg/mL] | Minimum inhibition concentration (MIC) [19] [µg/mL] | Minimum inhibition concentration (MIC) [20] [µg/mL] | other results |
| --- | --- | --- | --- | --- | --- | --- | --- | --- | --- | --- | --- | --- | --- | --- | --- | --- | --- | --- | --- | --- | --- |
| CC(=O)NC[C@H]1CN(c2ccc(N3CCC(=CC=O)CC3)c(F)c2)C(=O)O1 [Compound 17, N-[[(5S)-3-[3-fluoro-4-(4-(2-oxoethylidene)piperidinyl)-phenyl]-2-oxo-5-oxazolidinyl]methyl]acetamide] | 4 (≈ 10.7 µM) | 4 (≈ 10.7 µM) | 8 (≈ 21.3 µM) | 4 (≈ 10.7 µM) | 4 (≈ 10.7 µM) | 4 (≈ 10.7 µM) | 8 (≈ 21.3 µM) | 1 (≈ 2.66 µM) | 8 (≈ 21.3 µM) | 8 (≈ 21.3 µM) | 16 (≈ 42.6 µM) | 8 (≈ 21.3 µM) | 8 (≈ 21.3 µM) | 4 (≈ 10.7 µM) | 1 (≈ 2.66 µM) | 2 (≈ 5.33 µM) | 4 (≈ 10.7 µM) | 2 (≈ 5.33 µM) | 2 (≈ 5.33 µM) | 8 (≈ 21.3 µM) | Minimum inhibition concentration (MIC) [21]: 8 µg/mL (≈ 21.3 µM) |
| CC(=O)NC[C@H]1CN(c2ccc(N3CCC(=CC=NO)CC3)c(F)c2)C(=O)O1 [Compound 18, N-[[(5S)-3-[3-fluoro-4-(4-(2-hydroxyiminoethylidene)-piperidinyl)phenyl]-2-oxo-5-oxazolidinyl]methyl]acetamide] | 8 (≈ 20.5 µM) | 4 (≈ 10.2 µM) | 8 (≈ 20.5 µM) | 8 (≈ 20.5 µM) | 8 (≈ 20.5 µM) | 4 (≈ 10.2 µM) | 8 (≈ 20.5 µM) | 1 (≈ 2.56 µM) | 8 (≈ 20.5 µM) | 4 (≈ 10.2 µM) | 8 (≈ 20.5 µM) | 4 (≈ 10.2 µM) | 4 (≈ 10.2 µM) | 4 (≈ 10.2 µM) | 1 (≈ 2.56 µM) | 2 (≈ 5.12 µM) | 4 (≈ 10.2 µM) | 4 (≈ 10.2 µM) | 4 (≈ 10.2 µM) | 4 (≈ 10.2 µM) | Minimum inhibition concentration (MIC) [21]: 4 µg/mL (≈ 10.2 µM) |
| CON=CC=C1CCN(c2ccc(N3C[C@H](CNC(C)=O)OC3=O)cc2F)CC1 [Compound 19, N-[[(5S)-3-[3-fluoro-4-(4-(2-methoxyiminoethylidene)-piperidinyl)phenyl]-2-oxo-5-oxazolidinyl]methyl]acetamide] | 4 (≈ 9.89 µM) | 4 (≈ 9.89 µM) | 8 (≈ 19.8 µM) | 4 (≈ 9.89 µM) | 4 (≈ 9.89 µM) | 4 (≈ 9.89 µM) | 4 (≈ 9.89 µM) | 1 (≈ 2.47 µM) | 8 (≈ 19.8 µM) | 2 (≈ 4.95 µM) | 4 (≈ 9.89 µM) | 4 (≈ 9.89 µM) | 4 (≈ 9.89 µM) | 4 (≈ 9.89 µM) | 1 (≈ 2.47 µM) | 1 (≈ 2.47 µM) | 2 (≈ 4.95 µM) | 4 (≈ 9.89 µM) | 2 (≈ 4.95 µM) | 4 (≈ 9.89 µM) | Minimum inhibition concentration (MIC) [21]: 4 µg/mL (≈ 9.89 µM) |
| CC(=O)NC[C@H]1CN(c2ccc(N3CCC(=CC(C)=NO)CC3)c(F)c2)C(=O)O1 [Compound 20, N-[[(5S)-3-[3-fluoro-4-(4-(2-hydroxyiminopropylidene)-piperidinyl)phenyl]-2-oxo-5-oxazolidinyl]methyl]acetamide] | 8 (≈ 19.8 µM) | 8 (≈ 19.8 µM) | 8 (≈ 19.8 µM) | 16 (≈ 39.6 µM) | 8 (≈ 19.8 µM) | 4 (≈ 9.89 µM) | 8 (≈ 19.8 µM) | 1 (≈ 2.47 µM) | 8 (≈ 19.8 µM) | 4 (≈ 9.89 µM) | 8 (≈ 19.8 µM) | 4 (≈ 9.89 µM) | 4 (≈ 9.89 µM) | 4 (≈ 9.89 µM) | 1 (≈ 2.47 µM) | 1 (≈ 2.47 µM) | 4 (≈ 9.89 µM) | 4 (≈ 9.89 µM) | 4 (≈ 9.89 µM) | 4 (≈ 9.89 µM) | Minimum inhibition concentration (MIC) [21]: 4 µg/mL (≈ 9.89 µM) |
| CON=C(C)C=C1CCN(c2ccc(N3C[C@H](CNC(C)=O)OC3=O)cc2F)CC1 [Compound 21, N-[[(5S)-3-[3-fluoro-4-(4-(2-methoxyiminopropylidene)-piperidinyl)phenyl]-2-oxo-5-oxazolidinyl]methyl]acetamide] | 16 (≈ 38.2 µM) | 8 (≈ 19.1 µM) | 16 (≈ 38.2 µM) | 16 (≈ 38.2 µM) | 16 (≈ 38.2 µM) | 8 (≈ 19.1 µM) | 32 (≈ 76.5 µM) | 2 (≈ 4.78 µM) | 16 (≈ 38.2 µM) | 8 (≈ 19.1 µM) | 16 (≈ 38.2 µM) | 8 (≈ 19.1 µM) | 8 (≈ 19.1 µM) | 8 (≈ 19.1 µM) | 2 (≈ 4.78 µM) | 2 (≈ 4.78 µM) | 8 (≈ 19.1 µM) | 16 (≈ 38.2 µM) | 8 (≈ 19.1 µM) | 4 (≈ 9.56 µM) | Minimum inhibition concentration (MIC) [21]: 4 µg/mL (≈ 9.56 µM) |
| CC(=O)NC[C@H]1CN(c2ccc(N3CCC(=CC(C)O)CC3)c(F)c2)C(=O)O1 (stereo partly drawn) [Compound 22, N-[[(5S)-3-[3-fluoro-4-(4-(2-hydroxypropylidene)-piperidinyl)-phenyl]-2-oxo-5-oxazolidinyl]methyl]acetamide] | 8 (≈ 20.4 µM) | 8 (≈ 20.4 µM) | 16 (≈ 40.9 µM) | 16 (≈ 40.9 µM) | 16 (≈ 40.9 µM) | 4 (≈ 10.2 µM) | 16 (≈ 40.9 µM) | 2 (≈ 5.11 µM) | 8 (≈ 20.4 µM) | 8 (≈ 20.4 µM) | 8 (≈ 20.4 µM) | 8 (≈ 20.4 µM) | 4 (≈ 10.2 µM) | 4 (≈ 10.2 µM) | 2 (≈ 5.11 µM) | 2 (≈ 5.11 µM) | 4 (≈ 10.2 µM) | 4 (≈ 10.2 µM) | 4 (≈ 10.2 µM) | 4 (≈ 10.2 µM) | Minimum inhibition concentration (MIC) [21]: 4 µg/mL (≈ 10.2 µM) |
